Changes are numbered by the printed parent chain. Read-outs that look alike come from different tables or passages of the source.

The subject of series [1] is Human Liver Microsomes. The series is described as follows: in vitro. Here is the method: (§1) In all cases examined, product formation was directly determined by HPLC analysis of organic extracts.
(§2) Human liver samples were obtained from the Department of Surgery (UCSF) and with a protocol from the Medical College of Wisconsin (S. Wrighton).
(§3) A typical incubation mixture (final volume 0.25 ml) contained hepatic microsomes (0.4 mg of protein) or bacterial lysate (2.3 mg of protein), NADP^+ (0.5 mM), glucose-6-phosphate (2.0 mM), glucose-6-phosphate dehydrogenase (1 IU), DETAPAC (0.8 mM) and potassium phosphate buffer (50 mM, pH 8.4). Reactions were initiated by the addition of substrate and terminated at designated times by the addition of three volumes of cold dichloromethane, mixed thoroughly and centrifuged to separate the aqueous and organic fractions. N- and S-oxide metabolic products in the resulting organic extracts were separated and quantified by HPLC. […] Thiobenzamide and thiobenzamide S-oxide were quantified with this same, HPLC system employing a mobile phase of methanol/acetonitrile/60% perchloric acid (20:80:0.016, v/v) which gave retention volumes of 2.7 and 7.0 ml, respectively. […] The major metabolites formed in the incubations were also subjected to mass spectral analysis after extraction of isolated HPLC fractions.
(§4) RPLC of the S-oxide diastereomers with a Chiracel OT chiral analytical column (25 cm×0.15 cm inner diameter, Daicel Chemical Co., New York, N.Y.) was accomplished with a Beckman system, Kratos UV detector (240 nm) and a Hewlett Packard Integrator. […] Quantification was accomplished by comparing integrated HPLC peak areas after taking into account the difference in the extinction coefficients at 240 nm. Likewise, the cis and trans S-oxide diasteromers of (+)- and (−)-2-methyl-1,-benzodithiole were separated with a Chiracel OT chiral analytical column.

Series [2] deals with T1, adult human liver flavin-containing monooxygenase (form 3) (Homo sapiens, UniProt P31513, E158K).
T1 sequence (P31513 1-532 E158K): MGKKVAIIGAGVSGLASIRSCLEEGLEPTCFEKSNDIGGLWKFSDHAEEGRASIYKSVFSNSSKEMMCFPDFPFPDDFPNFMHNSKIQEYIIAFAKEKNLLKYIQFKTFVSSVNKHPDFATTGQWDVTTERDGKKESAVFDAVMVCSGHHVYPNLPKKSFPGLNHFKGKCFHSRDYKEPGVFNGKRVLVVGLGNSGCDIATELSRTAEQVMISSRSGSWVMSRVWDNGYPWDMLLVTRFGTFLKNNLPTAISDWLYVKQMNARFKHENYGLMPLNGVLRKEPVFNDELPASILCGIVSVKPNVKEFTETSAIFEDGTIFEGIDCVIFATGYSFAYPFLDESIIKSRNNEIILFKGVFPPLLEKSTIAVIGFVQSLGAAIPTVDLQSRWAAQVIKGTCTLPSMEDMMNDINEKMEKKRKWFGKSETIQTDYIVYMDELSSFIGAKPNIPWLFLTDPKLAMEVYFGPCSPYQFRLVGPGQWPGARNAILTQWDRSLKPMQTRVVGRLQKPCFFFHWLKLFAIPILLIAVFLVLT
The series is described as follows: N- and S-oxygenation by cDNA-expressed HLFMO 3 (solubilized protein from E. coli transformed with pTrcHLFMO 3), HPLC. The conditions noted are these: for Vmax, Expressed HLFMO / Km: N- or S-oxide formation, for the 4-bromophenyl-1,3-oxathiolanes formation of the trans S-oxide; for Km: read-out: Km, Expressed HLFMO. Here is the method:
as §1
Competent NM522 Escherichia coli cells were transformed with the pTrc HLFMO 3 plasmid. […] After inoculation with a fresh overnight culture of NM522 containing pTrcHLFMO 3, the culture was grown at 37° C. until Abs600 was approximately 0.5 absorbance units. Finally, IPTG (0.8 mM) was added to the culture to induce expression of protein and the culture was left to grow overnight at 37° C.
The bacterial pellet was resuspended in 5 volumes of 50 mM potassium phosphate buffer (pH 8.4) containing 1% Triton X-100, 0.1% L-, α-phosphatidylcholine (L-α-lecithin) from egg yolk, 500 μM PMSF, and 1 mM EDTA. The mixture was sonicated and then centrifuged to remove cellular debris. As a control, bacterial lysate extracts from IPTG-induced pTrc99A-transformed NM522 cells (i.e., pTrc99A without the HLFMO 3 cDNA insert) were prepared under the same conditions.
as §2, §3, §4

The target of series [3] is T2, glu158-HFMO3-MBP (Homo sapiens, UniProt P31513).
T2 sequence (P31513 2-532): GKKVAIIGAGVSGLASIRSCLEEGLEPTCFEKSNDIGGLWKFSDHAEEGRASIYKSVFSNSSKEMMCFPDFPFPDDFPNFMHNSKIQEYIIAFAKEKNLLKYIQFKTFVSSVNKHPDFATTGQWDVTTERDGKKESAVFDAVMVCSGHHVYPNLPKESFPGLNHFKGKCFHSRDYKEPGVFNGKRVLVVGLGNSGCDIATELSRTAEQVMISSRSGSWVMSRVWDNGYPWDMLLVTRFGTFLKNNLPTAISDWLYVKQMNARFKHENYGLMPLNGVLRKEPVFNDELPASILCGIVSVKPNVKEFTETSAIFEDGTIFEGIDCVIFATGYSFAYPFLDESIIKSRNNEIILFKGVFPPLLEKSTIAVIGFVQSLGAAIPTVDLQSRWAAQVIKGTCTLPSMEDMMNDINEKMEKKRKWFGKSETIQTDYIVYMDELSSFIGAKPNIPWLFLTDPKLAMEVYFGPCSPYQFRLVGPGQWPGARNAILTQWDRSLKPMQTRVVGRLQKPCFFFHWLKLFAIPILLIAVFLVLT
The series is described as follows: Substrate oxygenation by glu158-HFMO3-MBP fusion protein, HPLC. To be noted: human, 15 min, 200 µM, pH 9. The method, then:
(§5) For HFMO3-MBP assay, all HFMO3-MBP incubations were done as follows: Into a test tube was added DETAPAC (1.2 mM, final concentration for a 250 μl reaction) followed by the addition of 60 μl NADPH generating system (0.4 mM NADP, 0.4 mM glucose-6-phosphate, and 20 μl of a 50 units mI^−1 glucose-6-phosphate dehydrogenase). The tube was chilled on ice and buffer and enzyme were added as described below for individual experiments to give a volume of 240 μl. The incubation was initiated by the addition of 5-DTP (10 μl of 5 mM) and placed in a shaking water bath at 37° C. for 10 min (unless specified otherwise). The incubation was stopped by the addition of 1.0 ml of ice-cold CH2Cl2. Following the addition of sodium carbonate (approx. 20 mg), the culture tube was vortexed, centrifuged (2000×g, 10 min), and the organic layer was removed and transferred to a 1.5 ml microfuge tube. The organic solvent was evaporated under a stream of Ar(g) to dryness and the residue was taken up in MeOH (300 μl) for determination HPLC analysis.
(§6) Data was analyzed with a Hitachi D-2500 integrator.
(§7) MTS-oxygenation assays were carried out under the same buffer, temperature, time and volume conditions, as for the N-oxygenation assays. The reactions were initiated upon addition of 10 μl of a 5 mM solution of MTS. The reaction was quenched with the addition of 700 μl of 80% CH3CN:20% hexane then 20 mg NaCl(s) and vortexed vigorously for 10 sec. The quenched reactions were then centrifuged briefly to separate the phases. The organic layer, containing product and substrate, was removed and used directly for HPLC analysis.
(§8) All other instruments used were the same as above for the N-oxygenation reactions. Conditions for elution were 50% CH3CN/H2O (v:v) with a flow rate gradient as follows: 1.5 ml min^−1 from 0 to 4 min., 1.5-2.5 ml min^−1 from 4 to 5 min, 2.5 ml min^−1 from 5 to 15 min.
Trimethylamine is commonly ingested in foodstuffs or it is available in the diet of humans from choline and other sources. Trimethylamine (TMA) is exclusively eliminated in humans by metabolism to trimethylamine N-oxide (TMANO). […]

In series [4] the target is T3, lys158-HFMO3-MBP (Homo sapiens, UniProt P31513, E158K).
T3 sequence (P31513 2-532 E158K): T2 sequence (P31513 2-532) with E157K
As to the kind of experiment: Substrate oxygenation by lys158-HFMO3-MBP fusion protein, HPLC. The conditions noted are these: human, 15 min, 200 µM, pH 9. The method, then: as §5, §6, §7, §8
Trimethylamine is commonly ingested in foodstuffs or it is available in the diet of humans from choline and other sources. Trimethylamine (TMA) is exclusively eliminated in humans by metabolism to trimethylamine N-oxide (TMANO). […] Thus, urinary TMANO formation provides a simple, reliable and direct assay of FMO3 activity in adult humans. Analysis of TMA to TMANO ratios provides a direct means of phenotyping adult humans for FMO3 activity. Phenotyping FMO3 activity in humans would provide a simple means of evaluating the relationship between the presence of FMO3 and various disease conditions. […]

On to `CN(C)CCCN1c2ccccc2Sc2ccc(Cl)cc21` [Chlorpromazine, chlorpromazine], for which, in series [1] (human, 0.1 mM, pH 8.4), the “N-oxide formation, Human Liver Microsomes” value is 58.9 ± 7.4 pmol/min/mg of protein and the “S-oxide formation, Human Liver Microsomes” value is given as 29.3 ± 3.7 pmol/min/mg of protein. For the same compound, in series [2], the “substrate activity for human liver microsomes and expressed HLFMO 3, in words” value (from here on “substrate activity”) is “detectable”. The “N-oxide formation, Expressed HFLMO” value in series [2] (human, 0.1 mM, pH 8.4) is reported as 10.2 ± 1.2 pmol/min/mg of protein.
Take “(−)-4-bromophenyl-1,3-oxathiolane [(-)-4-Bromophenyl-1,3-oxathiolane]”: in series [1], the Km is 166 µM; the “Vmax, Human Liver Microsomes” value is given as 5.2 nmol/min/mg of protein; the “trans S-oxide formation rate, Human Liver Microsomes” value is 2.4 ± 0.9 nmol/min/mg of protein; the “trans S-oxide, % of S-oxide product, Human Liver Microsomes” value worked out at 100%. For the same compound, in series [2], the “substrate activity” value is reported as “excellent substrates”; the “trans S-oxide formation rate, Expressed HLFMO” value was 0.7 ± 0.1 nmol/min/mg of protein; the “trans S-oxide, % of S-oxide product, Expressed HLFMO” value was 100%; the “Vmax, Expressed HLFMO” value is recorded as 2.94 nmol/min/mg of protein. The Km in series [2] is 311 µM.
As for `CSc1ccc(C)cc1` [MTS, methyl p-tolyl sulfide], the “relative activity towards the sulfide, MTS vs. 5-DTP activity” value in series [3] is on record as 20 fold; in series [4] it was 4.9 fold.
As to `CC1Sc2ccccc2S1` [2-Methyl-1,3-Benzodithiole, 2-Methyl-1,3-benzodithiole], in series [1] (human, 0.5 mM, pH 8.4), the “S-oxide product cis (+)-(1R,2S), % Diastereomer” value was 28.2%; the “S-oxide product cis (+)-(1R,2S), amount formed” value is reported as 176 ± 34 pmol/min/mg of protein; the “S-oxide product cis (-)-(1S,2R), % Diastereomer” value stood at 12.3%; the “S-oxide product cis (-)-(1S,2R), amount formed” value was 77 ± 27 pmol/min/mg of protein. Moreover, in series [1] (human, 0.5 mM, pH 8.4), the “S-oxide product trans (+)-(1R,2R), % Diastereomer” value is recorded as 59.5% and the “S-oxide product trans (+)-(1R,2R), amount formed” value was 372 ± 35 pmol/min/mg of protein. Moreover, in series [2] (human, 0.5 mM, pH 8.4), the “S-oxide product cis (+)-(1R,2S), % Diastereomer” value is 48.6%; the “S-oxide product cis (+)-(1R,2S), amount formed” value is recorded as 54 ± 22 pmol/min/mg of protein; the “S-oxide product cis (-)-(1S,2R), % Diastereomer” value is 19.8%; the “S-oxide product cis (-)-(1S,2R), amount formed” value was 22 ± 2 pmol/min/mg of protein. In series [2] (human, 0.5 mM, pH 8.4), the “S-oxide product trans (+)-(1R,2R), % Diastereomer” value is recorded as 31.5% and the “S-oxide product trans (+)-(1R,2R), amount formed” value is recorded as 35 ± 27 pmol/min/mg of protein.
Turning to `CN(C)CCCCCCN1c2ccccc2Sc2ccc(C(F)(F)F)cc21` [Compound 6], in series [2] (human liver microsomes and solubilized protein from E. coli transformed with pTrcHLFMO 3), the “substrate activity” value is “better substrates”. Further, the “pH-optimum for tertiary amine N-oxygenation” value in series [2] (microsomal protein and expressed HLFMO 3 gave virtually identical pH-rate profiles) was “approximately 10”. Further, the “midpoint of the pH-rate profile of N-oxygenation” value in series [2] (microsomes and expressed HLFMO 3) was roughly 9.5.
Turning to 4-bromophenyl-1,3-oxathiolane, the “pH of maximum S-oxygenase activity” value in series [2] (in the presence of microsomes and expressed HLFMO 3) is reported as roughly 8.5.
Regarding (+)-4-bromophenyl-1,3-oxathiolane, in series [1], the Km worked out at 50 µM; the “Vmax, Human Liver Microsomes” value is 2.87 nmol/min/mg of protein; the “cis S-oxide formation rate, Human Liver Microsomes” value is listed as “(5.3 ± 0.9) nmol/min/mg of protein”; the “cis S-oxide, % of S-oxide product, Human Liver Microsomes” value is 40.4%. In addition, in series [1], the “trans S-oxide formation rate, Human Liver Microsomes” value is recorded as 7.8 ± 1.7 nmol/min/mg of protein and the “trans S-oxide, % of S-oxide product, Human Liver Microsomes” value came to 59.5%. In addition, in series [2], the “cis S-oxide, % of S-oxide product, Expressed HLFMO” value was determined as 38.5%; the “substrate activity” value is reported as “excellent substrates”; the “trans S-oxide formation rate, Expressed HLFMO” value is recorded as 0.8 ± 0.2 nmol/min/mg of protein; the “trans S-oxide, % of S-oxide product, Expressed HLFMO” value is recorded as 61.4%. In series [2], the “Vmax, Expressed HLFMO” value is 0.180 nmol/min/mg of protein and the Michaelis constant (Km) was 142 µM.

The term Km denotes the concentration of substrate that gives half-maximal velocity.

These data come from patent US6762052B1, “DNA sequence encoding flavin-containing monooxygenase” (priority 1993, dated 2004).
